“Also recorded” adds a separate entry of the source. Non-standard residues stand in square brackets, D forms with d. No end group written: not given here. Hyp = O=C(O)[C@@H]1C[C@@H](O)CN1
Tests used:
Ara h 2-specific IgE [1] = test: Biotin/streptavidin ELISA of serum IgE binding to peptides; design: species or system human; settings: for IgE binding by ELISA, Biotide peptides: serum pool at 10 IU/ml Ara h 2-sIgE, 20-30% pure Biotide peptides at 1 nM, Bt-anti-HuIgE 1:3,000 (FIG. 5A, 6A); for IgE binding by ELISA, purified peptides: serum pool at 10 IU/ml, 95-97% pure peptides at 5 nM, Bt-anti-HuIgE 1:500 (FIG. 5B, 6B)
Source text: (§1) To produce the serum pool, 10 individual sera were pooled with the concentration of Ara h 2-sIgE normalized so that no one serum was predominant (Table 2). Seven sera were studied in detail, 3 of these were included in the serum pool and 4 independent of the serum pool (Table 2). The Colorado Multiple Institutional Review Board (COMIRB) approved this study. All adult patients and the parents or guardians of minors gave written informed consent. Minors who were >6 years of age, signed an assent.
(§2) Peptides for ELISAs were synthesized with an N-terminal linker arm (Ttds; JPT Peptides, Berlin) followed by biotin at the N terminus. Prior to generating microarrays with high fidelity sequences, we performed screening assays using the Biotide approach (JPT Peptides, Berlin) in which multiple related peptides are synthesized in a cost-effective manner at approximately 20% purity. For validation, selected peptides were also synthesized by standard methods and purified (95-97% pure) by HPLC (JPT Laboratories, Berlin). For all peptides of epitope 3 and the related mimotope studied here, trans-4-hydroxyproline (h) was substituted for second proline in the DPY_P motif as this substitution may enhance binding of IgE. Peptides for microarray assays were synthesized with the Ttds linker arm on the N terminus and printed onto microscope slides treated with a proprietary 3-dimensional surface by JPT Peptides (Berlin).
Streptavidin (InVitrogen) (5 μg/ml) was bound to micro titer plates by overnight incubation in PBS, the plates were washed once with PBST (0.05% Tween 20) and 50 μL of peptides were added at a final concentration of 1-5 nM in PBST for 1 hour at room temperature. Unoccupied streptavidin sites were then saturated with 400 μM biotin in PBS and the samples were probed with diluted sera from allergic subjects diluted in PBST with 0.1% albumin to contain 10 IU/ml of Ara h 2-sIgE. After overnight incubation at 4° C., slides were washed, incubated with HRP-labeled murine monoclonal anti-human IgE (clone HP6029; Southern Biotech 1:500-1:3,000), washed again and developed with TMB (ThermoFisher Scientific). Background binding of serum without peptide (OD=approximately 0.100) was subtracted. We also examined the background of peptide without serum and this was similar to, or lower than, the background of serum without peptide.
(§3) GraphPad Prism (versions 8.4-9.5 for the Macintosh (GraphPad; La Jolla, CA)) was used to generate graphs and for statistical analysis. The following analyses were performed: 1) for dose response curves, multiple unpaired t test with Welch correction for unequal variances; 2) to combine data from multiple assays, the data were normalized within each assay based on IgE binding to the native sequence (epitope 3) or the original sequence (mimotope A147) and expressed binding as percent of binding and 3) to compare differences in IgE binding for a specific alanine substitution, one way ANOVA followed by Dunnet's multiple comparison test.

Ara h 2-specific IgE [2] = test: Peptide microarray of serum IgE binding (dose response and alanine scans); design: species or system human
Source text: as §1, §2
Each microscope slide contained 21 microarrays and within each microarray, peptides were printed in triplicate. 10-15 spots were not printed with any peptide as control spots. Sera were diluted to contain the same concentrations of Ara h 2-sIgE (usually 10 IU/ml) or at various concentrations for dose response assays and assayed in duplicate arrays on 3-4 separate days as previously described except for use of biotinylated anti-IgE (clone HP6029 from Southern Biotech at 1:1,000). For each microarray assay, the density units of three observations within each microarray were averaged and then the data from duplicate microarrays were averaged. To combine data from multiple independent assays, the signal within each assay was normalized to that of a wild-type peptide and the signal was expressed as a percent of that with the original peptide. Background binding of serum without peptide (300-500 AU) was subtracted. We also examined the background of peptide without serum. Only for the mimotope, this background was higher than the background of serum without peptide and these values (5,000-10,000 AU), which were quite high, were subtracted from the signal of serum with peptide (which bound IgE very strongly (20,000-30,000 AU), instead of subtracting the background of serum without peptide.
Linear sequences of epitope 3 and the mimotope as well as derivative peptides in which each amino acid was sequentially changed to alanine were studied.
as §3

DEDSYERDPYShSQDP (DEDSYERDPYS[Hyp]SQDP) [Epitope 3-Core]
IgE binding by ELISA, Biotide peptides (Ara h 2-specific IgE [1]): bind IgE almost as well as the 20mer sequence
IgE binding by ELISA, purified peptides (Ara h 2-specific IgE [1]): bound similar amounts of IgE; also recorded: No significant differences were seen; also recorded: strong binding

ERDPYShSQDPYShSPYDRR (ERDPYS[Hyp]SQDPYS[Hyp]SPYDRR) [20mer version of epitope 3]
IgE binding by ELISA, purified peptides (Ara h 2-specific IgE [1]): bound similar amounts of IgE

LLDPYAPRAWTK [A147]
IgE binding by ELISA, Biotide peptides (Ara h 2-specific IgE [1]): did not bind IgE well

LLDPYAhRAWTK (LLDPYA[Hyp]RAWTK) [mimotope with P->h]
Microarray signal of serum with peptide (Ara h 2-specific IgE [2]; before background subtraction): 20,000-30,000 AU
IgE binding in microarray format at Ara h 2 sIgE of 0.3 kU/L (Ara h 2-specific IgE [2]; serum pool at 0.3 kU/L Ara h 2 sIgE, p<0.05 (FIG. 7)): bound significantly more IgE than did Epitope 3-Core
IgE binding in microarray format, dose response of serum (Ara h 2-specific IgE [2]; serum pool at various doses, P substituted with h in all peptides (FIG. 7)): tended to bind more IgE at lower doses of serum
IgE binding by ELISA, Biotide peptides (Ara h 2-specific IgE [1]): bound more IgE at all doses than did the original mimotope
IgE binding by ELISA, Biotide peptides (Ara h 2-specific IgE [1]; listed as SEQ ID NO:2): binding was dramatically enhanced
IgE binding by ELISA, purified peptides (Ara h 2-specific IgE [1]): No significant differences were seen
IgE binding by ELISA, purified peptides (Ara h 2-specific IgE [1]; listed as SEQ ID NO:2): bound similar amounts of IgE as did Epitope 3-Core
IgE binding by ELISA, purified peptides (Ara h 2-specific IgE [1]; listed as substituted mimotope): bound amounts of IgE similar to that of the Epitope 3-Core peptide

Y10: Epitope 3-Core (DEDSYERDPYShSQDP) with amino acid Y10 changed to alanine (DEDSYERDPAS[Hyp]SQDP)
Relevance of the residue for IgE binding, alanine scan of Epitope 3-Core with individual sera (Ara h 2-specific IgE [2]; 7 individual sera (FIG. 2B)): relevant for most sera
IgE binding after alanine substitution, density units normalized to WT sequence (Ara h 2-specific IgE [2]; alanine scan of Epitope 3-Core, serum pool at 10 IU/ml Ara h 2-sIgE, percent of WT signal (FIG. 1B)): 9±6%
